This note sets out measurements from patent publication US20100168105A1, “Spirocyclopropyl Piperidine Derivatives” (priority 2007, published 2010).

Each structure is given as a SMILES string.

Usually IC50 stands for the concentration that gives 50% inhibition. Read a high IC50 as a need for much substance.

The target in assay [1] is T1, human Histamine H3 receptor (hH3R) (Homo sapiens, UniProt Q9Y5N1).
T1 construct: expressed in transfected cells; host or cells: CHO cells (membranes)
The experiment in a line: Guanosine 5'-O-(3-[35S]thio)triphosphate [GTPγS] Binding Assay. Particulars: antagonist activity; membranes from CHO cells expressing hH3R, (R)-α-methyl histamine 30 nM, [35S]GTPγS 0.2 nM, 90 minutes. The format is biochemical. As to the method: Guanosine 5′-O-(3-[^35]thio)triphosphate [GTPγS] Binding Assay
The GTPγS binding assay can be used to investigate antagonist properties of compounds in CHO cells (Chinese Hamster Ovary) transfected with human Histamine H3 receptor (hH3R). […] To determine antagonist activity, (R)-α-methyl histamine (30 nM) is added in 96 well SPA plate with [^35S]GTPγS (0.2 nM) and various concentration of H3R antagonists. The GTPγS binding assay is started with addition of the mixture membrane/saponine/GDP and incubated for 90 minutes at room temperature. The amount of bound [^35S]GTPγS is determined by using the MicroBeta Trilux counter (PerkinElmer). The percentage of [^35S]GTPγS bound in each sample is calculated as a percentage of that bound control sample incubated in absence of H3 antagonist. Duplicate determinations are obtained for each concentration, and the data are analyzed using ExcelFit4 to obtain the IC50.
On the technique in general: GTPγS is a poorly hydrolysed GTP analogue; its binding reports G protein activation.

Assay [2] addresses human histamine H3 receptors (full-length H3, isoform 445) (Homo sapiens, UniProt Q9Y5N1). Particulars: hH3 binding IC50 (nM), inhibition of 1.4 nM [3H]-N-α-methylhistamine binding to CHO-K1 membranes expressing human H3, SPA, 1.5 hr.
Method: Histamine H3 SPA with the Agonist Radioligand [^3H]—N-α-methylhistamine
Reproducibility of the assay is such that IC50 curves can be generated in singlicate. Single poke (SP) testing was done in triplicate.
Membranes, prepared from CHO-K1 cells stably expressing the human histamine H3 receptor, were obtained from ACS.
Tested formula I compounds were provided as solubilized samples in neat DMSO. Serial dilutions were performed in DMSO.
Plates were read on a Perkin Elmer TopCount. CPM data were used to analyze unless DPM data generated by a quench curve were required.
• 1. 1 mg/ml BSA was added to assay buffer (AB) on day of assay. • 2. […] Buffer volume was split between beads and membranes to allow for polytroning of membranes prior to addition to beads. • a. […] Waited a minimum of 15 minutes prior to adding membranes (See b. below.). • b. […] The homogenized membrane mixture was combined with the beads and a minimum of 30 minutes was waited prior to dispensing to plate. • 3. Formula I compounds: For Single Poke, 2 μl 1 mM of a compound in accordance with formula I was dispensed to Optiplates (triplicate plates) for final concentration of 10 μM. […] Imetit (see below) was used as a control. • 4. […] 5 μl samples were calculated in quadruplicate on the β counter. […] (For IC50s, use final concentration on calculation tab of ABase template.)
• 1. […] 2 μl of the formula I compound dilution was mixed and then transferred into assay plates. DMSO was removed and 2 μl of 100 μM Imetit was added to the wells. • 3. 178 μl bead/membrane mixture was dispensed into the assay plate. • 4. 20 μl [^3H]-NAMH was added with Rapid Plate. The assay plate was sealed and incubated for 1.5 hr on RT shaker at speed ˜6.5. • 5. The assay plate was subsequently centrifuged at 1000 rpm for 10 minutes. • 6. The count was performed on TopCount using one of the 3H SPA H3 Quench programs.
The DPM data was analyzed when tSIS was less than that associated with 70% of full scale on the quench curve (tSIS<25%). Otherwise, CPM data was used.

Sequence of human histamine H3 receptors (full-length H3, isoform 445) (Q9Y5N1 whole entry, canonical isoform): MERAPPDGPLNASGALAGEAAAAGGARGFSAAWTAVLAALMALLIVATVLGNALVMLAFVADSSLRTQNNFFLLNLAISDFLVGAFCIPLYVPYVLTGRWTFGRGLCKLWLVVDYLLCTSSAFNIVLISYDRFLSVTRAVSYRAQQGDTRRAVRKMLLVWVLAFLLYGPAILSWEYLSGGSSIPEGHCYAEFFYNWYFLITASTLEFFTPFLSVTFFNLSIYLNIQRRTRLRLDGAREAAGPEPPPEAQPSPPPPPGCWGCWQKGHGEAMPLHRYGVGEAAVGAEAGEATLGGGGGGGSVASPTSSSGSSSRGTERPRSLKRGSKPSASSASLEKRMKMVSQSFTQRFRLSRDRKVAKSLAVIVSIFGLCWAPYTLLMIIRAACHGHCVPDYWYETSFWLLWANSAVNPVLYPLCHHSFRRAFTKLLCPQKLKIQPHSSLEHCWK
T1 sequence (Q9Y5N1 whole entry): as the sequence (Q9Y5N1 whole entry, canonical isoform) above

On to `O=C(C1CC12CCN(C1CCOC1)CC2)N1CCN(C2CCC2)CC1` (centres unmarked) [Example 33, (4-Cyclobutyl-piperazin-1-yl)-[6-(tetrahydro-furan-3-yl)-6-aza-spiro[2.5]oct-1-yl]-methanone], for which the IC50 in assay [1] is 5.5 nM; in assay [2], 35.1 nM.
On the same counts, the results for `O=C(C1CC12CCN(C1CCOCC1)CC2)N1CCN(C2CC2)CC1` (centres unmarked) [Example 9, (4-Cyclopropylpiperazin-1-yl)(6-(tetrahydro-2H-pyran-4-yl)-6-azaspiro[2.5]octan-1-yl)methanone] are 19 nM and 33.5 nM.
`O=C(C1CC12CCN(CCc1ccccc1)CC2)N1CCN(C2CCCCC2)CC1` (centres unmarked) [Example 16, (4-Cyclohexyl-piperazin-1-yl)-(6-phenethyl-6-aza-spiro[2.5]oct-1-yl)-methanone]: the IC50 is 16.5 nM in assay [1] and 65.2 nM in assay [2].
The corresponding values for `O=C(C1CC12CCN(C1CCCCC1)CC2)N1CCN(C2CCCCC2)CC1` (centres unmarked) [Example 19, (6-Cyclohexyl-6-aza-spiro[2.5]oct-1-yl)-(4-cyclohexyl-piperazin-1-yl)-methanone] are 10.1 nM and 56.5 nM.
